The values below come from ChEMBL document CHEMBL1132653, “Substitution at the F-ring N-imide of the indolocarbazole antitumor drug NB-506 increases the cytotoxicity, DNA binding, and topoisomerase I inhibition activities” (J Med Chem, 1999).

The subject of one data set is DLD-1. The data set can be described thus: Cytotoxicity against human colon cancer cells (DLD-1). Type of data set: functional, cell-based.
The subject of the next data set is HCT-116. Nature of the data set: Cytotoxicity against human colon cancer cells (HCT116). Type of data set: functional, cell-based.
The next data set has as its system MKN-45. The data set can be described thus: Cytotoxicity against human gastric cancer cells (MKN-45). In kind it is functional, cell-based. The note with it: MKN-45, Stomach.
The next data set deals with P388. The data set can be described thus: Cytotoxicity against murine leukemia cell line (P388). Type of data set: functional, cell-based. To be noted: Mus musculus.
Data set [1] in a line: The compound was tested for free energy change at binding to DNA. In kind it is ADME.
A short description of data set [2]: The compound was tested for Binding constant against DNA. In kind it is ADME.

One may read the IC50 as the concentration needed to halve the response being measured. Low readings indicate higher potency, high ones lower potency. For `O=CNN1C(=O)c2c(c3c4cccc(O)c4n(C4OC(CO)C(O)C(O)C4O)c3c3[nH]c4c(O)cccc4c23)C1=O` (centres undefined), the IC50 turned out to be 2100 nM in the data set on DLD-1, 120 nM with HCT-116, 390 nM in the data set with MKN-45 and 62 nM in the data set with P388. Further, the -Delta G obs in data set [1] is 5.91 kcal/mol. In data set [2], this compound returned a K/10e4 of 2.64 M⁻¹.
In the data set on HCT-116, `O=C1c2c(c3c4cccc(O)c4n(C4OC(CO)C(O)C(O)C4O)c3c3[nH]c4c(O)cccc4c23)C(=O)N1NC(CO)CO` (centres undefined) gave an IC50 of 32 nM. The “-Delta G obs” value in data set [1] was found to be 6.56 kcal/mol. In addition, the K/10e4 in data set [2] came to 8.19 M⁻¹.
